Test results reported in patent publication US8729090B1, “Compositions and methods for inhibiting collagen production” (Florida State University Research Foundation, Inc., priority 2011, dated 2014).

What was measured:
[1] = system: primary human lung fibroblasts; experiment: Inhibition of type I collagen secretion by primary human lung fibroblasts, western blot of cellular medium; assay type: cell-based; conditions: two days; for secretion of type I collagen polypeptides COLα1(I) and COLα2(I) into the cellular medium: western blot
Description: Several chemical compounds were identified in this screen and tested for their ability to inhibit collagen production by primary human lung fibroblasts in culture. Lung fibroblasts are responsible for development of lung fibrosis. The compounds were added in a single dose of 100 μM to the lung fibroblasts, except compound 60D17, which was added at 10 μM. Two days after the addition of the compounds, the secretion of type I collagen into the cellular medium was analyzed by western blot. Both polypeptides which form type I collagen, COLα1(I) and COLα2(I), were analyzed.
Here, COLα1 represents the α1 polypeptide of type I collagen, COLα2 represents the α2 polypeptide of type I collagen, and FIB represents fibronectin, which was the control.

lung fibroblasts = experiment: Type I collagen expression of lung fibroblasts at therapeutic (nM) concentrations, western blot; assay type: cell-based, human
Description: In lung fibrosis the process of excessive collagen accumulation is similar to the liver, but the cells responsible for collagen synthesis are lung fibroblasts. Therefore, I tested the potency of 60D17 at therapeutic concentrations in lung fibroblasts before 60D17 was tested at higher concentrations in these cells.
Lane 4 represents untreated control cells.

[2] = system: hepatic stellate cells (HSCs); experiment: Inhibition of collagen α1(I) polypeptide synthesis in cultured hepatic stellate cells (HSCs), western blot; assay type: cell-based, rat; conditions: added at day 3, measured at day 7
Excerpt: HSCs are liver cells responsible for collagen synthesis in hepatic fibrosis. […] In fibrotic livers, HSCs increase type I collagen expression 50-100 fold. Similar changes can be reproduced when HSCs are isolated from rat livers and cultured in vitro.
Three days after isolation and culturing, the HSCs still retain their quiescent phenotype and show little collagen expression. At day 5 after isolation the first significant increase in collagen expression becomes evident. After 7-8 days of culturing type I collagen expression increases 50-100 fold and attains its maximal level.
I used this model to test the efficacy of 60D17 in inhibiting collagen expression, because it is relevant to liver fibrosis. 60D17 was added at 100 nM and 250 nM concentrations to HSCs at day 3 in the culture. The cells were cultured until day 7 and the level of collagen α1(I) polypeptide was measured by western blot.
Lane 1 contained untreated cells. Lane 2 contained HSCs treated with 250 nM of 60D17. Lane 3 contained HSCs treated with 100 nM of 60D17. The panel on the left represents the cellular levels of collagen α1(I) polypeptide measured by western blot. Actin (ACT) was used as the loading control. The right panel represents the collagen α1(I) polypeptide level in the cellular medium.

rat liver slices = experiment: Collagen expression in precision cut rat liver slices, western blot; assay type: cell-based; conditions: 1 μM, 4 days, four slices
Description: In these experiments 60D17 was added to four different slices (lanes 2-5) […] at 1 μM concentration. The expression of both collagen α1(I) polypeptide, resolved here as procollagen (PRO-COLL1A1), and processed mature collagen (COLL 1A1) were measured by western blot. Lanes 1 and 6 were untreated control. Actin (ACT) was used as the loading control.
Precision cut liver slices were prepared from rat liver with a thickness of 350 μm and diameter of 8 mm. These slices were cultured in vitro for several days. Cutting the liver represents an injury thereto. In response to this injury, the slices initiate profibrotic changes. The response is similar to the fibrotic response of the intact organ, because the slices retain all different cell types and proper architecture of the organ. Thus, they mimic fibrosis initiation of the whole liver. Accordingly, this is a useful model to test the efficacy of 60D17 in blocking the profibrotic reaction.

[3] = Initial animal studies, tolerability in rats; assay type: in vivo
collagen synthesis = conditions: cited from earlier work

Compound	antifibrotic activity (collagen production by human lung fibroblasts, FIG. 1) ([1]; single dose of 100 μM)	secretion of type I collagen polypeptides COLα1(I) and COLα2(I) into the cellular medium ([1]; single dose of 100 μM)	other results
NCc1ccc(N2CCOCC2)cc1 [1E10]	posses antifibrotic activity	dramatically reduced excretion of both collagen polypeptides	
O=c1c2oc3cccc4c3n(c=2c(=O)c2ccccc12)CCC4 [11M14]	posses antifibrotic activity	reduced production of α1(I) polypeptide more than that of α2 polypeptide	
Cc1cccn2c(=O)c3cc(C(=O)N4CCN(c5ccccc5)CC4)n(C)c3nc12 [13B8]	posses antifibrotic activity	reduced production of α1(I) polypeptide more than that of α2 polypeptide	
COC(=O)c1ccc2c3c([nH]c2c1)CCCC3 [13F20]	posses antifibrotic activity	dramatically reduced excretion of both collagen polypeptides	
Cc1cc(C)nc(-n2nc(-c3ccc4ccccc4c3)cc2O)n1 [45F6]	posses antifibrotic activity	dramatically reduced excretion of both collagen polypeptides	
COc1ccc(N2CCOCC2)c(NC(=O)C(C)(C)C)c1 [45I22]	posses antifibrotic activity	dramatically reduced excretion of both collagen polypeptides	
Cc1cc(C)nc(-n2[nH]c3nccc(-c4ccc5ccccc5c4)c3c2=O)n1 [49L20]	posses antifibrotic activity	reduced production of α1(I) polypeptide more than that of α2 polypeptide	
CCN1CCCC1CNC(=O)c1ccc(S(=O)(=O)N2CCOCC2)cc1 (stereo not drawn) [57N21]	posses antifibrotic activity	reduced production of α1(I) polypeptide more than that of α2 polypeptide	
Cn1c(C(=O)Nc2ccccc2)cc2c(=O)n3ccccc3nc21 [60D17-G]			synthesis of type I collagen (lung fibroblasts; nM concentrations, cells not given): interfered with the synthesis of type I collagen at nM concentrations
Cc1cccn2c(=O)c3cc(C(=O)Nc4cccnc4)n(C)c3nc12 [60D17]			antifibrotic activity (collagen production by human lung fibroblasts, FIG. 1) ([1]; single dose of 10 μM): posses antifibrotic activity; secretion of type I collagen polypeptides COLα1(I) and COLα2(I) into the cellular medium ([1]; single dose of 10 μM): dramatically reduced excretion of both collagen polypeptides; collagen α1(I) polypeptide expression in HSCs ([2]; 100 nM): significantly inhibited collagen production; collagen α1(I) polypeptide expression in HSCs ([2]; 250 nM): almost completely blocked the increase in collagen expression; expression of collagen α1(I) polypeptide in rat liver slices (rat liver slices): significantly inhibited expression of collagen α1(I) polypeptide; type I collagen expression (lung fibroblasts; 50 nM): substantially ineffective; synthesis of collagen α1(I) polypeptide (lung fibroblasts; 100 nM): smaller effect; synthesis of collagen α2(I) polypeptide (lung fibroblasts; 100 nM): dramatically inhibited synthesis of collagen α2(I) polypeptide; production of both polypeptides comprising type I collagen (lung fibroblasts; 500 nM, 18 h): almost completely inhibited; tolerability in rats [3]: well tolerated
COC(=O)CNC(=O)c1cc2c(=O)n3cccc(C)c3nc2n1C [60J13]	posses antifibrotic activity	dramatically reduced excretion of both collagen polypeptides	
CN(C)c1cccc(-c2nn3c(-c4ccccn4)nnc3s2)c1 [60M4]	posses antifibrotic activity	reduced α2 polypeptide more than α1 polypeptide	
CC(CCO)Nc1nc2c(c(=O)n(C)c(=O)n2C)n1Cc1ccccc1F (stereo not drawn) [65N3]	posses antifibrotic activity	dramatically reduced excretion of both collagen polypeptides	
CCSc1nnc2c(n1)OC(c1ccncc1)=Nc1ccccc1-2 [67C17]	posses antifibrotic activity	reduced α2 polypeptide more than α1 polypeptide	
O=S(=O)(c1cccc2ccccc12)N1CCCNCC1 [ML-7]			collagen synthesis (collagen synthesis): interferes with collagen synthesis
